From patent publication US20250136634A1, “CAP ANALOG AND USE THEREOF” (SHANGHAI HONGENE BIOTECH CORPORATION, priority 2021, published 2025)

What was measured:
[1] = target: T7 RNA polymerase (Escherichia phage T7, UniProt P00573); assay: Capping efficiency of mRNA from T7 in vitro transcription, RNaseH cleavage and LC-MS (Example 2); format: biochemical; conditions: Example 2, T7 RNA polymerase IVT at 37° C. for 2 hs
Description: (5) Treatment with Antarctic Phosphatase:

[2] = target: T1, IFIT1 (Homo sapiens, UniProt P09914); assay: Binding ability of mRNA to IFIT1, RNA co-immunoprecipitation and qPCR in Hela cells; conditions: 2 ug mRNA/well, cells collected after 24 hours, relative to ^m7GpppApG cap, mean±SD
T1 construct: endogenous in cells; host or cells: Hela cells (ATCC CCL-2)
T1 sequence (P09914 1-478): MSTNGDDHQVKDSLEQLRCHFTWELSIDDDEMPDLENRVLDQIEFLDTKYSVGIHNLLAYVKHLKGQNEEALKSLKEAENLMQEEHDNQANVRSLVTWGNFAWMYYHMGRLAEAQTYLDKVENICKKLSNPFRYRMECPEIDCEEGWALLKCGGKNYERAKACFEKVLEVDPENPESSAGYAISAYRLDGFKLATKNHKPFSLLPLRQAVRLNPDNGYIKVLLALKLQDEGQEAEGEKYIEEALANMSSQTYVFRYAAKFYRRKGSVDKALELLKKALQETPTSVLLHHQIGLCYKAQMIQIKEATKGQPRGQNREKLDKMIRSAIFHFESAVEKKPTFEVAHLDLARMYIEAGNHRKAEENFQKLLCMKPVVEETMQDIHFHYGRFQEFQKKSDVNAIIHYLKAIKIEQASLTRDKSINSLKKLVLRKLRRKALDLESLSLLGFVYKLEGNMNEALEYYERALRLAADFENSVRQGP
Procedure: In this example, Hela cells (ATCC CCL-2) were transfected with luciferase mRNAs (Gaussia luciferase) comprising various initial cap structures (the initial cap nucleotide structures comprised are: ^m7GpppApG, ^m7GpppA2′Ome pG, ^m7G3′OmepppA2′O-ethylpG, ^m7G2′OmepppA2′O-ethylpG, ^m7G3′Omeppp A2′O-MOEpG, ^m7G2′O-mepppA2′O-MOEpG, ^m7Gppp(N6-methyladenine)2′O-MOEpG, ^m7G2′OmepppC2′O-ethylpC, ^m7G3′OmepppA2′O-MOEpU), and collected after 24 hours. The intracellular proteins RIG-I and IFIT1 were co-precipitated with the RNAs to which they bound by RNA co-immunoprecipation. The mRNAs were subjected to reverse transcription and real-time quantitative PCR, and the relative abundance of the mRNAs is proportional to their RIG-I and IFIT1 binding ability.
(§1) Hela cells were seeded at a cell density of 4×10^5/well in 6-well plates, and transfected with mRNA at 2 ug mRNA/well when the cell density reached about 80% using Lipofectamine MessengerMAX Transfection Reagent (Invitrogen) according to the transfection steps in the instruction. The cells were collected after 24 hours, and incubated at RT for 10 minutes after the addition of fixative solution. The reaction was then terminated by adding glycine at a suitable concentration, and the cells were collected by centrifugation. Appropriate amount of lysis solution was added to the cells. The mixture was incubated on ice for 30 minutes and centrifuged to collect supernatant. Appropriate amount of (2-4 ng) anti-RIG-I and IFIT1 antibodies (Abcam) were added to the supernatant, and the mixture was incubated overnight at 4° C. on a shaker, and then 20 ul Protein A/G magnetic beads were added and incubated for 2 hours at 4° C. on a shaker. The beads were rinsed using magnetic grate for 5 minutes and repeated 3 times. After that, 1 mL TRIzol reagent was added to the magnetic beads to extract RNAs which were then reverse transcribed into cDNAs. The expression of related genes was detected using real-time quantitative fluorescent PCR with B-actin as the internal reference. The detection of each gene was repeated 3 times, and the result of the expression of each gene is expressed as the relative value to the result of ^m7GpppApG cap.
The intracellular proteins RIG-I and IFIT1 were co-precipitated with the RNAs to which they bound by RNA co-immunoprecipitation. The mRNAs were subjected to reverse transcription and real-time quantitative PCR, and the relative abundance of the mRNAs is proportional to their RIG-I and IFIT1 binding ability.
as §1, with “(Invitrogen) as the transfection reagent” for “(Invitrogen)”, “was” for “was then”

T7 RNA polymerase, sequence (P00573 whole entry): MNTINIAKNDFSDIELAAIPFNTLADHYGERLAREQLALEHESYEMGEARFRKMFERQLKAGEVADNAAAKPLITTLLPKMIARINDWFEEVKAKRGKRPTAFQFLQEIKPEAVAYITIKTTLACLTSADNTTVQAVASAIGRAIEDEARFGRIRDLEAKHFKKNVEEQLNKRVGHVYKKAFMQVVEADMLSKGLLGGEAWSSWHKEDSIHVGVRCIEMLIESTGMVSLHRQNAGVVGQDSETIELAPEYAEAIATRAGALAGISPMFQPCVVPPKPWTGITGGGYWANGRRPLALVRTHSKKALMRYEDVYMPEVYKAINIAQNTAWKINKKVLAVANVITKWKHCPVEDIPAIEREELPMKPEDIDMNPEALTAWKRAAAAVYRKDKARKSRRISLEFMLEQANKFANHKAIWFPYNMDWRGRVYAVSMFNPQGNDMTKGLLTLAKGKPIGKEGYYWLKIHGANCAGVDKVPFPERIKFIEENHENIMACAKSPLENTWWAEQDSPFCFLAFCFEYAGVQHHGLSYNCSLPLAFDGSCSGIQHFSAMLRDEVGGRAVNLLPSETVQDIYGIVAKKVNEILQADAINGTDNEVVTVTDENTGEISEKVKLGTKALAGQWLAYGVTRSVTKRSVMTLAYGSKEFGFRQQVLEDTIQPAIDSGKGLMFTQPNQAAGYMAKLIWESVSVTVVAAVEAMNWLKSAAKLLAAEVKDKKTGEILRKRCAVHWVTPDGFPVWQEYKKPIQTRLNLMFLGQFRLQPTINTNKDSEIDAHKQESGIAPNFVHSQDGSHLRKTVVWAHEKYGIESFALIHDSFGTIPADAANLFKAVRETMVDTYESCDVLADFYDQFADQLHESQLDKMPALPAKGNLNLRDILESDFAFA

Substance | Capping efficiency [1] [%] | Relative binding ability to IFIT1 ([2]; Example 2) | Relative binding ability to IFIT1 ([2]; Example 3 (IVT at 50° C.))
^m7G2′OmepppA2′O-MOEpG | 88 | 0.66 ± 0.02 | 
^m7G2′OmepppA2′O-ethylpG | 92 | 0.84 ± 0.08 | 
^m7G2′OmepppC2′O-ethylpC | 92 | 0.91 ± 0.05 | 
^m7G3′OmepppA2′O-MOEpG | 89 | 0.76 ± 0.04 | 
^m7G3′OmepppA2′O-MOEpU | 93 | 1.19 ± 0.07 | 
^m7G3′OmepppA2′O-ethylpG | 94 | 0.89 ± 0.13 | 
^m7GAlpha-L-LNApppA2′O-ethyl pG |  |  | 0.55 ± 0.07
^m7GBeta-D-LNApppA2′O-MOEpG |  |  | 0.49 ± 0.04
^m7Gppp(N6-methyladenine)2′O-MOEpG | 84 | 0.79 ± 0.01 | 
^m7GpppA2′Ome pG [reference compound] | 97 | 0.88 ± 0.01 | 0.84 ± 0.09
^m7GpppApG [reference compound] | 98 | 1 ± 0.04 | 1 ± 0.19
